Measurements published in patent publication US9107415B2, “2-(substituted-phenyl)-cyclopentane-1,3-dione compounds, and derivatives thereof” (Syngenta Limited, priority 2011, dated 2015).

Columns and labels:
Assay type in all cases: in vivo
[1] = test system: Echinochloa crus galli, barnyardgrass (ECHCG); assay: Biological Example 3 glasshouse screen, post-emergence herbicidal activity; settings: 360 h, 15 DAA, no safener, read-out: ECHCG percentage phytotoxicity; for pest or weed control at 30 g/ha: application rate 30 g/ha
Experimental: (§1) Test Method: Seeds of a variety of test species are sown in standard soil in pots. After cultivation for one day (pre-emergence) or after 12 days cultivation (post-emergence) under controlled conditions in a glasshouse (warm climate species at 24/18°C., cool climate species at 20/16°C., both at day/night; 16 hours light; 65% humidity), the plants are sprayed with an aqueous spray solution derived from the formulation of the “technical”(i.e. unformulated) active ingredient dissolved in acetone plus IF50, at a 1:20 ratio of “technical”active ingredient to IF50. The IF50 contains about 10.56 weight % Emulsogen EL™(castor oil ethoxylate, CAS Registry number 61791-12-6), about 42.22 weight % N-methylpyrrolidone, and about 42.22 weight % DPG-Monoethyl ether (dipropylene glycol mono-ethyl ether). The adjuvant X-77 (a mixture of alkyl aryl polyoxyethylene glycols and free fatty acids in isopropanol, CAS Registry number 11097-66-8) is added to the aqueous spray solution to form a 0.2% v/v solution, before spraying onto the plants.
(§2) The test plants are then grown in a glasshouse under controlled conditions in a glasshouse (at 24/18°C. or 20/16°C., day/night; 16 hours light; 65% humidity) and watered twice daily. After 15 days after application of the herbicide (15 DAA) (for post-emergence), and after 20 DAA (for pre-emergence), the test is evaluated visually, and an assessed percentage phytotoxicity score is given for each herbicidal application on each plant/weed species (with 100%=total damage to plant; 0%=no damage to plant). […]

[2] = test system: Avena fatua, wild oats (AVEFA); assay: as above; settings: 360 h, 15 DAA, no safener, read-out: AVEFA percentage phytotoxicity; for pest or weed control at 30 g/ha: application rate 30 g/ha
Experimental: as §1, §2

[3] = test system: Lolium perenne, perennial ryegrass (LOLPE); assay: as above; settings: 360 h, 15 DAA, no safener, read-out: LOLPE percentage phytotoxicity; for pest or weed control at 30 g/ha: application rate 30 g/ha
Experimental: as §1, §2

[4] = test system: Alopecurus myosuroides, blackgrass (ALOMY); assay: as above; settings: 360 h, 15 DAA, no safener, read-out: ALOMY percentage phytotoxicity; for pest or weed control at 30 g/ha: application rate 30 g/ha
Experimental: as §1, §2

[5] = test system: Triticum aestivum, wheat (TRZAW); assay: Biological Example 3 glasshouse screen, post-emergence, phytotoxicity on wheat; settings: 360 h, 15 DAA, no safener, read-out: TRZAW percentage phytotoxicity; for pest or weed control at 30 g/ha: application rate 30 g/ha
Experimental: as §1
The test plants are then grown in a glasshouse under controlled conditions in a glasshouse (at 24/18°C. or 20/16°C., day/night; 16 hours light; 65% humidity) and watered twice daily. After 15 days after application of the herbicide (15 DAA) (for post-emergence), and after 20 DAA (for pre-emergence), the test is evaluated visually, and an assessed percentage phytotoxicity score is given for each herbicidal application on each plant/weed species (with 100%=total damage to plant; 0%=no damage to plant).
These give an approximate indication of the level of selectivity on wheat for these tested compounds, when a herbicide safener such as cloquintocet-mexyl is not used: […]

Avena fatua (AVEFA) [6] = assay: Biological Example 1 glasshouse screen, pre-emergence herbicidal activity; settings: 312 h, application rate 250 g/ha, evaluated after 13 days, read-out: AVEFA percentage phytotoxicity
Experimental: (§3) Seeds of a variety of test species were sown in standard soil in pots. After cultivation for one day (pre-emergence) or after 8 days cultivation (post-emergence) under controlled conditions in a glasshouse (at 24/16°C., day/night; 14 hours light; 65% humidity), the plants were sprayed with an aqueous spray solution derived from the formulation of the “technical”(i.e. unformulated) active ingredient in acetone/water (50:50) solution containing 0.5% Tween 20 (polyoxyethylene sorbitan monolaurate, CAS Registry Number 9005-64-5). The test plants were then grown in a glasshouse under controlled conditions in a glasshouse (at 24/16°C., day/night; 14 hours light; 65% humidity) and watered twice daily. After 13 days for pre- or post-emergence, the test was evaluated visually, and an assessed percentage phytotoxicity score given for each herbicidal application on each plant/weed species (with 100%=total damage to plant; 0%=no damage to plant).
(§4) Test plants: Lolium perenne (LOLPE), Alopecurus myosuroides (ALOMY), Echinochloa crus-galli (ECHCG), and Avena fatua (AVEFA). All four of these are grassy monocotyledonous weeds.

Lolium perenne (LOLPE) [7] = assay: as above; settings: 312 h, application rate 250 g/ha, evaluated after 13 days, read-out: LOLPE percentage phytotoxicity
Experimental: as §3, §4

[8] = test system: Echinochloa crus-galli (ECHCG); assay: as above; settings: 312 h, application rate 250 g/ha, evaluated after 13 days, read-out: ECHCG percentage phytotoxicity
Experimental: as §3
(§5) Test plants: Alopecurus myosuroides (ALOMY), Setaria faberi (SETFA), Echinochloa crus-galli (ECHCG), Solanum nigrum (SOLNI), Amaranthus retroflexus (AMARE) and Ipomoea hederacea (IPOHE). ALOMY, SETFA and ECHCG are grassy monocotyledonous weeds. SOLNI, AMARE and IPOHE are dicotyledonous (broadleaved) weeds.
as §4

[9] = test system: Alopecurus myosuroides (ALOMY); assay: as above; settings: 312 h, application rate 250 g/ha, evaluated after 13 days, read-out: ALOMY percentage phytotoxicity
Experimental: as §3, §5, §4

Avena fatua (AVEFA) [10] = assay: Biological Example 1 glasshouse screen, post-emergence herbicidal activity; settings: 312 h, application rate 250 g/ha, evaluated after 13 days, read-out: AVEFA percentage phytotoxicity
Experimental: as §3, §4

Lolium perenne (LOLPE) [11] = assay: as above; settings: 312 h, application rate 250 g/ha, evaluated after 13 days, read-out: LOLPE percentage phytotoxicity
Experimental: as §3, §4

[12] = test system: Echinochloa crus-galli (ECHCG); assay: as above; settings: 312 h, application rate 250 g/ha, evaluated after 13 days, read-out: ECHCG percentage phytotoxicity
Experimental: as §3, §5, §4

[13] = test system: Alopecurus myosuroides (ALOMY); assay: as above; settings: 312 h, application rate 250 g/ha, evaluated after 13 days, read-out: ALOMY percentage phytotoxicity
Experimental: as §3, §5, §4

SMILES	pest or weed control at 30 g/ha [1] [%]	pest or weed control at 30 g/ha [2] [%]	pest or weed control at 30 g/ha [3] [%]	pest or weed control at 30 g/ha [4] [%]	pest or weed control at 30 g/ha [5] [%]	pest or weed control at 250 g/ha (Avena fatua (AVEFA) [6]) [%]	pest or weed control at 250 g/ha (Lolium perenne (LOLPE) [7]) [%]	pest or weed control at 250 g/ha [8] [%]	pest or weed control at 250 g/ha [9] [%]	pest or weed control at 250 g/ha (Avena fatua (AVEFA) [10]) [%]	pest or weed control at 250 g/ha (Lolium perenne (LOLPE) [11]) [%]	pest or weed control at 250 g/ha [12] [%]	pest or weed control at 250 g/ha [13] [%]	pest or weed control at 60 g/ha ([1]; application rate 60 g/ha) [%]	pest or weed control at 60 g/ha ([2]; application rate 60 g/ha) [%]	pest or weed control at 60 g/ha ([3]; application rate 60 g/ha) [%]	pest or weed control at 60 g/ha ([4]; application rate 60 g/ha) [%]	pest or weed control at 60 g/ha ([5]; application rate 60 g/ha) [%]
Cc1cc(-c2ccc(F)c(Cl)c2)cc(C)c1C1C(=O)CC(Cc2ccccn2)C1=O (stereo not drawn) [reference compound]	90	90	70	100	70	–	–	–	–	–	–	–	–	–	–	–	–	–
CC#Cc1cc(C)c(C2C(=O)CC(CC#CCl)C2=O)c(C)c1 (stereo not drawn) [Compound A-22]	–	–	–	–	–	80	90	100	90	0	80	100	60	–	–	–	–	–
CC#Cc1cc(C)c(C2C(=O)CC(Cc3ccccc3C#N)C2=O)c(C)c1 (stereo not drawn) [Compound A-29]	–	–	–	–	–	100	50	80	50	80	100	100	100	–	–	–	–	–
CC#Cc1cc(C)c(C2C(=O)CC(Cc3ccc(C#N)c(NC)n3)C2=O)c(C)c1 (stereo not drawn) [Compound A-23, 6-[[3-(2,6-dimethyl-4-prop-1-ynyl-phenyl)-2,4-dioxo-cyclopentyl]methyl]-2-(methylamino)pyridine-3-carbonitrile]	–	–	–	–	–	80	80	100	80	90	90	100	100	–	–	–	–	–
CC#Cc1cc(C)c(C2=C(O)CC(Cc3cccc(C#N)n3)C2=O)c(C)c1 (stereo not drawn) [Compound A-12]	–	–	–	–	–	80	90	100	90	100	90	100	90	–	–	–	–	–
CC#Cc1cc(C)c(C2C(=O)CC(Cc3ccc(C#N)cc3)C2=O)c(C)c1 (stereo not drawn) [Compound A-28]	–	–	–	–	–	70	90	100	70	80	90	100	90	–	–	–	–	–
CC#CCC1CC(=O)C(c2c(C)cc(C#CC)cc2C)C1=O (stereo not drawn) [Compound A-21]	–	–	–	–	–	60	100	100	100	80	100	100	100	–	–	–	–	–
CC#Cc1cc(C)c(C2C(=O)CC(Cc3ccc(C#N)cn3)C2=O)c(CC)c1 (stereo not drawn) [Compound A-27]	–	–	–	–	–	90	100	100	90	100	90	100	70	–	–	–	–	–
C#CCC1CC(=O)C(c2c(C)cc(C#CC)cc2C)C1=O (stereo not drawn) [Compound A-20]	–	–	–	–	–	90	100	100	100	90	100	100	100	–	–	–	–	–
CC#Cc1cc(C)c(C2C(=O)CC(Cc3ccn[nH]3)C2=O)c(C)c1 (stereo not drawn) [Compound A-24]	–	–	–	–	–	80	100	100	100	100	100	100	100	–	–	–	–	–
Cc1cc(-c2ccc(F)cc2)cc(C)c1C1C(=O)CC(Cc2ccc(C#N)cn2)C1=O (stereo not drawn) [reference compound]	100	30	10	70	50	–	–	–	–	–	–	–	–	–	–	–	–	–
C#CCC1CC(=O)C(c2c(C)cc(C#CCl)cc2C)C1=O (stereo not drawn) [Compound A-25]	–	–	–	–	–	70	100	100	90	100	100	100	90	–	–	–	–	–
Cc1cc(-c2ccc(F)cc2)cc(C)c1C1C(=O)CC(Cc2ccccn2)C1=O (stereo not drawn) [Compound T71, from WO 2010/069834, reference compound]	100	100	90	100	80	–	–	–	–	–	–	–	–	–	–	–	–	–
CC#Cc1cc(C)c(C2=C(O)CC(Cc3cccc(F)n3)C2=O)c(C)c1 (stereo not drawn) [Compound A-7]	80	40	80	70	40	–	–	–	–	90	100	100	100	100	50	90	80	50
CC#Cc1cc(C)c(C2=C(O)CC(Cc3ccc(C(C)=O)cn3)C2=O)c(C)c1 (stereo not drawn) [Compound A-13]	–	–	–	–	–	80	80	100	80	80	80	100	70	–	–	–	–	–
